In brackets after ≈: the same amount, converted by molar mass. Read-outs that look alike come from different tables or passages of the source.
Columns and labels:
[1] = tested on: BRAF monomers in A375 cells; test: A375 AlphaLISA SureFire pERK1/2 cellular assay (monomer); format: cell-based; settings: Homo sapiens, A-375; A375 cells, 1 hr; read-out: pERK A375 (1 hr) pIC50 (converted)
Protocol: (§1) The human HCT-116 colorectal carcinoma cell line (ATCC CCL-247) endogenously expresses the KRAS^G13D mutation, which leads to constitutive activation of the MAP kinase pathway and phosphorylation of ERK. […] Assay read outs took place 2 or 24 hours after dosing with compounds. On the first day, HCT-116 cells were harvested, resuspended in growth medium (McCoys5A with Glutamax (Life Technologies 36600021) and 10% heat-inactivated fetal bovine serum (Sigma F9665)), and counted. Cells were plated in 100 μl per well in each well of a 96-well culture dish (Sigma CLS3598) to a final density of 30,000 (2 hr read) or 15,000 (24 hr read) cells per well and incubated over night at 37° C. and 5% CO2. On day 2, the growth medium was exchanged for dosing medium (McCoys5A with Glutamax (Life Technologies 36600021) and 1% heat-inactivated fetal bovine serum (Sigma F9665)) and the cells were dosed with compounds to produce a 10-point dose response, where the top concentration was 1 μM and subsequent concentrations were at 1/3 log dilution intervals. A matched DMSO control was included. The cells were subsequently incubated for either 2 or 24 hours at 37° C. and 5% CO2. After incubation, media was removed and the cells were incubated with lysis buffer containing phosphatase inhibitors for 15 minutes at room temperature. Cell lysates were transferred to a 12 area 96 well white Optiplate™ (Perkin Elmer 6005569) and incubated with anti-mouse IgG acceptor beads, a biotinylated anti-ERK1/2 rabbit antibody recognizing both phosphorylated and non-phosphorylated ERK1/2, a mouse antibody targeted to the Thr202/Tyr204 epitope and recognizing phosphorylated ERK proteins only, and streptavidin-coated donor beads. The biotinylated antibody binds to the streptavidin-coated donor beads and the phopsho-ERK1/2 antibody binds to the acceptor beads. Plates were read on an EnVision reader (Perkin Elmer) and excitation of the beads at 680 nm with a laser induced the release of singlet oxygen molecules from the donor beads that trigger energy transfer to the acceptor beads in close proximity, producing a signal that can be measured at 570 nm. Both antibodies bound to phosphorylated ERK proteins, bringing the donor and acceptor beads into close proximity. All data were analyzed using the Dotmatics or GraphPad Prism software packages. Inhibition of ERK phosphorylation was assessed by determination of the absolute IC50 value, which is defined as the concentration of compound required to decrease the level of phosphorylated ERK proteins by 50% when compared to DMSO control.
A375 AlphaLISA SureFire pERK1/2 Cellular Assay (Monomer)
The human A375 melanoma cell line (ATCC CRL-1619) endogenously expresses the BRAF^V600E mutation, which leads to constitutive activation of the MAP kinase pathway and phosphorylation of ERK. In BRAF^V600E mutant tumours, BRAF signals as a monomer to activate ERK. To determine whether compounds can inhibit BRAF monomers in A375 cells, they were tested using AlphaLISA® SureFire® technology (Perkin Elmer p-ERK1/2 p-T202/Y204 assay kit ALSU-PERK-A10K). The main procedure is essentially the same as described above for HCT-116 cells, with the following adjustments: The A375 cells were cultivated and dosed in Dulbecco's modified Eagle's medium containing 4.5 g/L D-glucose (Sigma D6546), 10% heat-inactivated fetal bovine serum (Sigma F9665), and 1% Sodium-Pyruvate (Sigma S8636), and seeded with a seeding density of 30,000 cells per well. No media exchange was performed before dosing with compounds to produce a 10-point dose response, where the top concentration was 10 μM and subsequent concentrations were at 1/2 log dilution intervals. Subsequently, the cells were incubated for 1 hour at 37° C. and 5% CO2 before lysis.

[2] = Microsomal stability assay, human liver microsomes (HLM); format: in vitro ADME; settings: 0.5 mg/mL protein, 1 μM substrate
Protocol: (§2) Microsomal Stability Assay
(§3) The stability studies were performed manually using the substrate depletion approach. Test compounds were incubated at 37° C. with cryo-preserved mouse or human liver microsomes (Corning) at a protein concentration of 0.5 mg·mL^−1 and a final substrate concentration of 1 μM. Aliquots were removed from the incubation at defined timepoints and the reaction was terminated by adding to ice-cold organic solvent. Compound concentrations were determined by LC-MS/MS analysis. The natural log of the percentage of compound remaining was plotted against each time point and the slope determined. The half-life (t1/2) and CLint were calculated using Equations 1 and 2, respectively.
(§4) HLM (human liver microsomes) and MLM (mouse liver microsomes) stability assay results are described in Tables 1-2.

[3] = Microsomal stability assay, mouse liver microsomes (MLM); format: in vitro ADME; settings: 0.5 mg/mL protein, 1 μM substrate
Protocol: as §2, §3, §4

[4] = Plasma protein binding assay, human plasma (hPPB); format: in vitro ADME; settings: 5 μM
Protocol: (§5) Plasma Protein Binding Assay The plasma protein binding was determined by the equilibrium dialysis method. A known concentration of compound (5 μM) in previously frozen human or mouse plasma (Sera Labs) was dialysed against phosphate buffer using a RED device (Life Technologies) for 4 hours at 37° C. The concentration of compound in the protein containing (PC) and protein free (PF) sides of the dialysis membrane were determined by LC-MS/MS and the % free compound was determined by equation 4. Data analysis was performed using Excel (Microsoft, USA). % free=(1−((PC−PF)/PC))×100 (4) hPPB (human plasma protein binding) and mPPB (mouse plasma protein binding) results are described in Tables 1-2.

[5] = Plasma protein binding assay, mouse plasma (mPPB); format: in vitro ADME; settings: 5 μM
Protocol: as §5

[6] = tested on: constitutive ERK phosphorylation in HCT-116 cells; test: HCT-116 AlphaLISA SureFire pERK1/2 cellular assay; format: cell-based, human; settings: Homo sapiens, HCT-116; HCT116 cells, 2 hr, Abs; read-out: pERK HCT116 (2 hr) Abs pIC50 (converted)
Protocol: as §1, with “HCT-116” for “The human HCT-116”, “AlphaLISA SureFire pERK1/2 Cellular Assay […]” for “colorectal carcinoma cell line (ATCC CCL-247) endogenously expresses the KRAS^G13D mutation, which leads to constitutive activation of the MAP kinase pathway and phosphorylation of ERK.”, “Plates were read on an EnVision reader (Perkin Elmer) and excitation of the beads at 680 nm with a laser induced the release of singlet oxygen molecules from the donor beads that trigger energy transfer to the acceptor beads in close proximity, producing a signal that can be measured at 570 nm.” left out

FeSSIF solubility assay = format: physicochemical; settings: fed state simulated intestinal fluid (FeSSIF), thermodynamic from solid, pH 5 acetate buffer, 37° C., read-out: FESSIF Sol
Protocol: FeSSIF Solubility Assay 1 mL of fed state simulated intestinal fluid (FeSSIF), prepared using FaSSIF/FeSSIF/FaSSGF powder (Biorelevant.com) and pH 5 acetate buffer, was added to 1.0 mg of compound and then incubated for 24 h (Bioshake iQ, 650 rpm, 37° C.). Following filtration under positive pressure, the concentration of compound in solution was assessed by LC-UV in comparison to the response for a calibration standard of known concentration (250 μM). FeSSIF solubility results are described in Tables 1-2.

[7] = tested on: RAF dimers in HCT-116 cells; test: HCT-116 AlphaLISA SureFire pERK1/2 cellular assay (dimer); format: cell-based; settings: Homo sapiens, HCT-116, 1 hr
Protocol: as §1
HCT-116 AlphaLISA SureFire pERK1/2 Cellular Assay (Dimer)
The human HCT-116 colorectal carcinoma cell line (ATCC CCL-247) endogenously expresses the KRAS^G13D mutation, which leads to constitutive activation of the MAP kinase pathway and phosphorylation of ERK. First generation RAF inhibitors can promote RAF dimer formation in KRAS mutant tumours leading to a paradoxical activation of the pathway. To determine whether compounds can circumvent this problem and inhibit RAF dimers in HCT-116 cells, they were tested using AlphaLISA® SureFire® technology (Perkin Elmer p-ERK1/2 p-T202/Y204 assay kit ALSU-PERK-A10K). The main procedure is essentially the same as described above, with the following adjustments: Cells were seeded with the seeding density of 30,000 cells per well. On the second day (the day of dosing) no medium change was performed and the cells were dosed with 1 μM of Encorafenib for 1 hour (at 37° C. and 5% CO2) to induce RAF dimers and promote paradoxical dimer-dependent pERK signalling. After incubation, the cells were washed, 100 μl fresh growth medium was added, and cells were dosed with compounds of interest to produce a 10-point dose response, where the top concentration was 10 μM and subsequent concentrations are at 1/2 log dilution intervals. Cells were incubated for another hour at 37° C. and 5% CO2 before lysis and processing with the pERK AlphaLISA® SureFire® kit as described above. […]

[8] = equilibrium dialysis 4 hours 37° C.
[9] = HCT116 cells pre-dosed with 1 μM Encorafenib, read-out: pERK HCT116 dimer (1 hr) pIC50 (converted)
[10] = equilibrium dialysis 4 hours at 37° C.

## CN1CCN(Cc2cc(C(F)(F)F)c3nc(C4COc5ccc(Oc6ccnc7c6CCC(=O)N7)cc5C4)[nH]c3c2)CC1 (stereo not drawn) [Compound 28]
[1]
  IC50: 1820 nM
[2]
  microsomal CLint at 1 μM: 68.1 µL/min/mg
[3]
  microsomal CLint at 1 μM: 31.1 µL/min/mg
[4]; [8]
  hPPB (% free): 0.1 % free
[5]; [8]
  mPPB (% free): 0.5 % free

## Cn1ncc2cc(-c3c[nH]c(C4COc5ccc(Oc6ccnc7c6CCC(=O)N7)cc5C4)n3)ccc21 (stereo not drawn) [Compound 131, 5-[3-[4-(1-methylindazol-5-yl)-1H-imidazol-2-yl]chroman-6-yl]oxy-3,4-dihydro-1H-1,8-naphthyridin-2-one]
[6]
  IC50: > 1000 nM
FeSSIF solubility assay
  solubility thermodynamic at 24 h: 12.2 µg/mL (≈ 24.8 µM)

## Cc1cc(-c2ccc3[nH]c(N4CCc5ccc(Oc6ccnc7c6CCC(=O)N7)cc5C4)nc3c2)n(C)n1 [Compound 163]
[6]
  IC50: > 1000 nM
FeSSIF solubility assay
  solubility thermodynamic at 24 h: < 1.3 µg/mL

## Cn1cnc2cc(-c3c[nH]c(C4COc5ccc(Oc6ccnc7c6CCC(=O)N7)cc5C4)n3)ccc21 (stereo not drawn) [Compound 129, 5-[3-[4-(1-methylbenzimidazol-5-yl)-1H-imidazol-2-yl]chroman-6-yl]oxy-3,4-dihydro-1H-1,8-naphthyridin-2-one]
[6]
  IC50: > 1000 nM
FeSSIF solubility assay
  solubility thermodynamic at 24 h: 16.7 µg/mL (≈ 33.9 µM)

## COc1ncc(-c2c[nH]c(C3COc4ccc(Oc5ccnc6c5CCC(=O)N6)cc4C3)n2)c(OC)n1 (stereo not drawn) [Compound 18, 5-[3-[4-(2,4-dimethoxypyrimidin-5-yl)-1H-imidazol-2-yl]chroman-6-yl]oxy-3,4-dihydro-1H-1,8-naphthyridin-2-one]
[1]
  IC50: 10000 nM
[7]; [9]
  IC50: 3630 nM
[2]
  microsomal CLint at 1 μM: 71.1 µL/min/mg
[3]
  microsomal CLint at 1 μM: 32.9 µL/min/mg
[4]; [8]
  hPPB (% free): 1.2 % free
[5]; [8]
  mPPB (% free): 2.5 % free

## c1ccc(-c2c[nH]c(C3COc4ccc(Oc5ccnc(Nc6nccs6)c5)cc4C3)n2)cc1 (stereo not drawn) [Compound 141]
[6]
  IC50: > 1000 nM
[2]; 37° C.
  microsomal CLint at 1 μM: 1 µL/min/mg
[3]; 37° C.
  microsomal CLint at 1 μM: 21.8 µL/min/mg
[4]; [10]
  hPPB (% free): <0.1 % free
[5]; [10]
  mPPB (% free): 0.5 % free

## O=C1CCc2c(Oc3ccc4c(c3)CC(c3nc(-c5ccccc5F)c[nH]3)CO4)ccnc2N1 (stereo not drawn) [Compound 3, 5-[3-[4-(2-fluorophenyl)-1H-imidazol-2-yl]chroman-6-yl]oxy-3,4-dihydro-1H-1,8-naphthyridin-2-one]
[1]
  IC50: 43.7 nM
[7]; [9]
  IC50: 112 nM
[2]
  microsomal CLint at 1 μM: 30.3 µL/min/mg
[3]
  microsomal CLint at 1 μM: 34.4 µL/min/mg
[4]; [8]
  hPPB (% free): 0.2 % free
[5]; [8]
  mPPB (% free): 0.5 % free

## Cn1cc(-c2c[nH]c(C3COc4ccc(Oc5ccnc6c5CCC(=O)N6)cc4C3)n2)cn1 (stereo not drawn) [Compound 108, 5-[3-[4-(1-methylpyrazol-4-yl)-1H-imidazol-2-yl]chroman-6-yl]oxy-3,4-dihydro-1H-1,8-naphthyridin-2-one]
[1]
  IC50: 6310 nM
[7]; HCT116 cells, dimer, read-out: pERK HCT116 dimer (1 hr) plC50 (converted)
  IC50: 389 nM
[6]
  IC50: > 1000 nM

## O=C(NC1CC1)c1cc(Oc2ccc3c(c2)CC(c2nc(-c4ccccc4)c[nH]2)CO3)ccn1 (stereo not drawn) [Compound 158, N-cyclopropyl-4-[3-(4-phenyl-1H-imidazol-2-yl)chroman-6-yl]oxy-pyridine-2-carboxamide]
[6]
  IC50: 741 nM
[2]; 37° C.
  microsomal CLint at 1 μM: 21.3 µL/min/mg
[3]; 37° C.
  microsomal CLint at 1 μM: 62.8 µL/min/mg
[4]; [10]
  hPPB (% free): 0.3 % free
[5]; [10]
  mPPB (% free): 0.2 % free
